Test results reported in ChEMBL document CHEMBL1914304 (J Med Chem, 2011).

How the values were obtained:
[1] = system: HEK293; assay: Cytotoxicity against human HEK293 cells after 72 hrs by luminescence assay; assay type: cell-based; conditions: hek293, 72 h
[2] = system: BJ; assay: Cytotoxicity against human BJ cells after 72 hrs by luminescence assay; assay type: cell-based
[3] = Selectivity ratio of EC50 for human HepG2 cells to EC50 for Plasmodium falciparum
[4] = system: Raji; assay: Cytotoxicity against human Raji cells after 72 hrs by luminescence assay; assay type: cell-based
[5] = system: HepG2; assay: Cytotoxicity against human HepG2 cells after 72 hrs by luminescence assay; assay type: cell-based; conditions: hepg2, 72 h

Structure (SMILES)	Activity [1]	Activity [2]	selectivity ratio [3]	Activity [4]	Activity [5]
COc1cccc(N(CC(O)COc2ccc(F)cc2C(=O)CCc2ccc(F)cc2)c2ccccc2)c1.Cl (racemic)	Non-toxic	Non-toxic	> 10	Non-toxic	Non-toxic
CN(CCc1ccccc1)CC(O)COc1ccc(F)cc1C(=O)CCc1ccc(F)cc1.Cl (racemic)	Non-toxic	Non-toxic	> 10	Non-toxic	Non-toxic
CCN(CC)CC(O)COc1ccc(F)cc1C(=O)CCc1ccc(F)cc1.Cl (racemic)	Non-toxic	Non-toxic	> 10	Non-toxic	Non-toxic
CCCN(CCC)CC(O)COc1ccc(F)cc1C(=O)CCc1ccc(F)cc1.Cl (racemic)	Non-toxic	Non-toxic	> 10	Non-toxic	Non-toxic
CCCCN(CCCC)CC(O)COc1ccc(F)cc1C(=O)CCc1ccc(F)cc1.Cl (racemic)	Non-toxic	Non-toxic	> 10	Non-toxic	Non-toxic
CC(C)N(CC(O)COc1ccc(F)cc1C(=O)CCc1ccc(F)cc1)c1ccccc1.Cl (racemic)	Non-toxic	Non-toxic	> 10	Non-toxic	Non-toxic
Cl.O=C(CCc1ccc(F)cc1)c1cc(F)ccc1OCC(O)CN(C1CCCCC1)C1CCCCC1 (racemic)	Non-toxic	Non-toxic	> 10	Non-toxic	Non-toxic
Cl.O=C(CCc1ccccc1)c1ccccc1OCC(O)CN1CCCCC1 (racemic)	Non-toxic	Non-toxic	> 10	Non-toxic	Non-toxic
Cl.O=C(CCc1ccccc1)c1ccccc1OCC(O)CN1CCC(Cc2ccccc2)CC1 (racemic)	Non-toxic	Non-toxic	> 10	Non-toxic	Non-toxic
Cl.O=C(CCc1ccccc1)c1ccccc1OCC(O)CN1CCC(c2ccc(Cl)cc2)CC1 (racemic)	Non-toxic	Non-toxic	> 10	Non-toxic	Non-toxic
Cl.O=C(CCc1ccccc1)c1ccccc1OCC(O)CN1CCC(O)(Cc2ccccc2)CC1 (racemic)	Non-toxic	Non-toxic	> 10	Non-toxic	Non-toxic
Cl.O=C(CCc1ccccc1)c1ccccc1OCC(O)CN1CCC(O)(c2ccc(Cl)cc2)CC1 (racemic)	Non-toxic	Non-toxic	> 10	Non-toxic	Non-toxic
Cl.O=C(CCc1ccccc1)c1ccccc1OCC(O)CN1CCN(c2ccccc2)CC1 (racemic)	Non-toxic	Non-toxic	> 10	Non-toxic	Non-toxic
Cl.O=C(CCc1ccccc1)c1ccccc1OCC(O)CN1CCN(Cc2ccccc2)CC1 (racemic)	Non-toxic	Non-toxic	> 10	Non-toxic	Non-toxic
Cc1ccccc1N1CCN(CC(O)COc2ccccc2C(=O)CCc2ccccc2)CC1.Cl (racemic)	Non-toxic	Non-toxic	> 10	Non-toxic	Non-toxic
Cc1cccc(N2CCN(CC(O)COc3ccccc3C(=O)CCc3ccccc3)CC2)c1.Cl (racemic)	Non-toxic	Non-toxic	> 10	Non-toxic	Non-toxic
COc1ccccc1N1CCN(CC(O)COc2ccccc2C(=O)CCc2ccccc2)CC1.Cl (racemic)	Non-toxic	Non-toxic	> 10	Non-toxic	Non-toxic
COc1cccc(N2CCN(CC(O)COc3ccccc3C(=O)CCc3ccccc3)CC2)c1.Cl (racemic)	Non-toxic	Non-toxic	> 10	Non-toxic	Non-toxic
COc1ccc(N2CCN(CC(O)COc3ccccc3C(=O)CCc3ccccc3)CC2)cc1.Cl (racemic)	Non-toxic	Non-toxic	> 10	Non-toxic	Non-toxic

Structure (SMILES)	Activity [1]	Activity [2]	selectivity ratio [3]	Activity [4]	Activity [5]
Cl.O=C(CCc1ccccc1)c1ccccc1OCC(O)CN1CCN(c2ccccc2Cl)CC1 (racemic)	Non-toxic	Non-toxic	> 10	Non-toxic	Non-toxic
Cl.O=C(CCc1ccccc1)c1ccccc1OCC(O)CN1CCN(c2ccc(Cl)cc2)CC1 (racemic)	Non-toxic	Non-toxic	> 10	Non-toxic	Non-toxic
Cl.O=C(CCc1ccccc1)c1ccccc1OCC(O)CN1CCN(c2ccc(Cl)c(Cl)c2)CC1 (racemic)	Non-toxic	Non-toxic	> 10	Non-toxic	Non-toxic
Cl.O=C(CCc1ccccc1)c1ccccc1OCC(O)CN1CCN(c2ccccc2F)CC1 (racemic)	Non-toxic	Non-toxic	> 10	Non-toxic	Non-toxic
Cl.O=C(CCc1ccccc1)c1ccccc1OCC(O)CN1CCN(c2ccc(F)cc2)CC1 (racemic)	Non-toxic	Non-toxic	> 10	Non-toxic	Non-toxic
Cl.O=C(CCc1ccccc1)c1ccccc1OCC(O)CN1CCN(c2ccc([N+](=O)[O-])cc2)CC1 (racemic)	Non-toxic	Non-toxic	> 10	Non-toxic	Non-toxic
Cl.Nc1ccc(N2CCN(CC(O)COc3ccccc3C(=O)CCc3ccccc3)CC2)cc1 (racemic)	Non-toxic	Non-toxic	> 10	Non-toxic	Non-toxic
Cl.O=C(CCc1ccccc1)c1ccccc1OCC(O)CN1CCN(c2ccc(O)cc2)CC1 (racemic)	Non-toxic	Non-toxic	> 10	Non-toxic	Non-toxic
Cl.O=C(CCc1ccccc1)c1ccccc1OCC(O)CN1CCN(c2ccc(C(F)(F)F)cc2)CC1 (racemic)	Non-toxic	Non-toxic	> 10	Non-toxic	Non-toxic
Cl.O=C(CCc1ccccc1)c1ccccc1OCC(O)CN1CCN(C(=O)c2ccccc2)CC1 (racemic)	Non-toxic	Non-toxic	> 10	Non-toxic	Non-toxic
CN1CCN(CC(O)COc2ccccc2C(=O)CCc2ccccc2)CC1.Cl (racemic)	Non-toxic	Non-toxic	> 10	Non-toxic	Non-toxic
CCN1CCN(CC(O)COc2ccccc2C(=O)CCc2ccccc2)CC1.Cl (racemic)	Non-toxic	Non-toxic	> 10	Non-toxic	Non-toxic
Cl.O=C(CCc1ccccc1)c1ccccc1OCC(O)CN1CCOCC1 (racemic)	Non-toxic	Non-toxic	> 10	Non-toxic	Non-toxic
Cc1cccc([N+]2(c3ccccc3)CCN(CC(O)COc3ccccc3C(=O)CCc3ccc(F)cc3)CC2)c1.[Cl-] (racemic)	Non-toxic	Non-toxic	> 10	Non-toxic	Non-toxic
Cl.O=C(CCc1ccc(F)cc1)c1ccccc1OCC(O)CN1CCCCC1 (racemic)	Non-toxic	Non-toxic	> 10	Non-toxic	Non-toxic
Cl.O=C(CCc1ccc(F)cc1)c1ccccc1OCC(O)CN1CCC(c2ccccc2)CC1 (racemic)	Non-toxic	Non-toxic	> 10	Non-toxic	Non-toxic
Cl.O=C(CCc1ccc(F)cc1)c1ccccc1OCC(O)CN1CCC(Cc2ccccc2)CC1 (racemic)	Non-toxic	Non-toxic	> 10	Non-toxic	Non-toxic
Cl.O=C(CCc1ccc(F)cc1)c1ccccc1OCC(O)CN1CCC(c2ccc(Cl)cc2)CC1 (racemic)	Non-toxic	Non-toxic	> 10	Non-toxic	Non-toxic
Cl.O=C(CCc1ccc(F)cc1)c1ccccc1OCC(O)CN1CCC(O)(Cc2ccccc2)CC1 (racemic)	Non-toxic	Non-toxic	> 10	Non-toxic	Non-toxic
